Data from patent publication US4764602A, “Antibiotics, and their production” (Sumitomo Chemical Company, priority 1986, dated 1988).
Converted amounts (≈) assume the structure as drawn.

How the values were obtained:
[1] = system: Trichophyton mentagrophytes MTU 19001; assay: MIC by agar dilution method; type: cell-based; details: MTU19001, Sabouraud's agar medium
Text: (§1) The minimum inhibitory concentrations (MIC) of PC-766B against various microorgnisms as measured by the agar dilution method are shown in Table 4.
(§2) Note: *^1 1: Modified MullerHinton agar medium; 2: Sabouraud's agar

[2] = system: Staphylococcus aureus 209P; assay: MIC by agar dilution method; type: cell-based; details: Modified MullerHinton agar medium
Text: as §1, §2

[3] = system: Bacillus subtilis ATCC 6633; assay: MIC by agar dilution method; type: cell-based; details: ATCC6633, Modified MullerHinton agar medium
Text: as §1, §2

[4] = system: Serratia marcescens ×100; assay: MIC by agar dilution method; type: cell-based; details: Modified MullerHinton agar medium
Text: as §1, §2

[5] = system: Streptococcus pyogenes Cook; assay: MIC by agar dilution method; type: cell-based; details: Modified MullerHinton agar medium
Text: as §1, §2

[6] = system: Aspergillus fumigatus MTU 16001; assay: MIC by agar dilution method; type: cell-based; details: MTU16001, Sabouraud's agar medium
Text: as §1, §2

[7] = system: Bacillus cereus IAM 1029; assay: MIC by agar dilution method; type: cell-based; details: IAM1029, Modified MullerHinton agar medium
Text: as §1, §2

[8] = system: Cryptococcus neoformans MTU 13001; assay: MIC by agar dilution method; type: cell-based; details: MTU13001, Sabouraud's agar medium
Text: as §1, §2

[9] = system: Candida albicans MTU 12001; assay: MIC by agar dilution method; type: cell-based; details: MTU12001, Sabouraud's agar medium
Text: as §1, §2

[10] = system: Micrococcus luteus ATCC 9341; assay: MIC by agar dilution method; type: cell-based; details: ATCC9341, Modified MullerHinton agar medium
Text: as §1, §2

[11] = system: Klebsiella pneumoniae ATCC 10031; assay: MIC by agar dilution method; type: cell-based; details: ATCC10031, Modified MullerHinton agar medium
Text: as §1, §2

[12] = system: Proteus mirabilis GN 2425; assay: MIC by agar dilution method; type: cell-based; details: GN2425, Modified MullerHinton agar medium
Text: as §1, §2

[13] = system: Escherichia coli NIJH JC-2; assay: MIC by agar dilution method; type: cell-based; details: NIJHJC2, Modified MullerHinton agar medium
Text: as §1, §2

[14] = system: Staphylococcus epidermidis IAM 1296; assay: MIC by agar dilution method; type: cell-based; details: IAM1296, Modified MullerHinton agar medium
Text: as §1, §2

[15] = system: Pseudomonas aeruginosa T; assay: MIC by agar dilution method; type: cell-based; details: Modified MullerHinton agar medium
Text: as §1, §2

[16] = Solubility; type: physicochemical

For CC=CC=CC1OC(O)(C(C)C(O)C(C)C2OC(=O)C(OC)=CC(C)=CC(C)C(O)C(C)CC(C)=CC=CC2OC)CC(OC2CC(O)C(O)C(C)O2)C1C (centres unmarked) [PC-766B], which MIC [1] is on record?
The MIC was > 100 mg/L.

What about the MIC [2] of the same compound?
Its MIC is 12.5 mg/L (≈ 16.1 µM).

And the MIC [3]?
The MIC was 6.25 mg/L (≈ 8.04 µM).

What about the MIC [4] of the same compound?
Its MIC is > 200 mg/L.

What about the MIC [5] of the same compound?
Its MIC is 3.13 mg/L (≈ 4.03 µM).

What about the MIC [6] of the same compound?
The MIC was > 100 mg/L.

What about the MIC [7] of the same compound?
The MIC was 3.13 mg/L (≈ 4.03 µM).

And the MIC [8]?
Its MIC is 12.5 mg/L (≈ 16.1 µM).

And the MIC [9]?
Its MIC is > 100 mg/L.

And the MIC [10]?
The MIC was 1.56 mg/L (≈ 2.01 µM).

And the MIC [11]?
The MIC was > 200 mg/L.

What about the MIC [12] of the same compound?
Its MIC is > 200 mg/L.

What about the MIC [13] of the same compound?
Its MIC is > 200 mg/L.

What about the MIC [14] of the same compound?
The MIC was 6.25 mg/L (≈ 8.04 µM).

And the MIC [15]?
The MIC was > 200 mg/L.

What about the Solubility ([16]; methanol, chloroform and ethyl acetate) of the same compound?
The Solubility was “soluble in methanol, chloroform and ethyl acetate”.

What about the Solubility ([16]; n-hexane and water) of the same compound?
The Solubility was “insoluble in n-hexane and water”.
